Molecules are shown by their SMILES. Structures can show the parent of a compound that is named as a salt. Bounds are passed on as bounds.

For this experiment, the target named is T1, human ASK1 (Homo sapiens, UniProt Q99683).
T1 construct: a 2.2 kb DNA fragment containing an ASK1 gene was recovered from the gel; made in house; host or cells: Sf-21 insect cells, recombinant baculovirus (pFASTBAC1, Bac-to-Bac)
T1 sequence (Q99683 649-1374 limits assumed): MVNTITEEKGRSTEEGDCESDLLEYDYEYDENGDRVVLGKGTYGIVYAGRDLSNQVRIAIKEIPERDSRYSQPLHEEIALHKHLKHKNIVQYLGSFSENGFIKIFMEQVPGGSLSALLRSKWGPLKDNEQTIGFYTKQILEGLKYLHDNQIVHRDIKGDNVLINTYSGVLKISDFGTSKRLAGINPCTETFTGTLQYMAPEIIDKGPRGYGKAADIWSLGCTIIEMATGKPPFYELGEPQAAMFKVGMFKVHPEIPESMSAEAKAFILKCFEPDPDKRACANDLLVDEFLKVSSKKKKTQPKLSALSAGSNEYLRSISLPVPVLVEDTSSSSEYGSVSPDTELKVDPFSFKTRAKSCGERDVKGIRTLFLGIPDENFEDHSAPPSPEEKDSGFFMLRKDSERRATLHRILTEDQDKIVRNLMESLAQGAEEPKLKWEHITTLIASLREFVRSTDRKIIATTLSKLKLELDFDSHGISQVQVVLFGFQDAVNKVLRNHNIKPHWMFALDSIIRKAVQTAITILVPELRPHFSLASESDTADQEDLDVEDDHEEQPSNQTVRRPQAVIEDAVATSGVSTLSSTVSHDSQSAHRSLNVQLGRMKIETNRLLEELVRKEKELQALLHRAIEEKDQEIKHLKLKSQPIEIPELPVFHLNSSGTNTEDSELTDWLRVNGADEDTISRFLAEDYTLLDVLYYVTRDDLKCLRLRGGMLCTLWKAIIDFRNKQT
The experiment in a line: Scintillation assay measuring inhibition of ASK1 phosphorylation of myelin basic protein. The note with it: active ASK1 protein 30 ng, myelin basic protein 1 μg, [γ-32P]ATP, room temperature 30 min; values given as ranges; read-out: Enzyme Activity IC50. The format is biochemical. Here is the method: Cloning of cDNA encoding human ASK1 was conducted by PCR using primers, 5′-[…] AGAGAAGGGGA-3′ (SEQ ID NO: 1) and 5′-[…]-3′ (SEQ ID NO: 2), from human heart cDNA library (Becton, Dickinson and Company). The PCR product was subjected to agarose gel (1%) electrophoresis, a 2.2 kb DNA fragment containing an ASK1 gene was recovered from the gel, and then digested with restriction enzymes, NotI and SalI, and inserted into a plasmid pFASTBAC1 (Invitrogen) to prepare a plasmid pFB-ASK1. The insert was verified by sequencing. Recombinant baculovirus was prepared according to the procedure of the Bac-to-Bac baculovirus expression system (Invitrogen).
Sf-21 cells were seeded to achieve 1×10^6 cells/mL in 100 mL of Sf-900 II SFM medium (Invitrogen) which contains 10% fetal calf serum and then cultured at 27° C. for 24 hrs. To express ASK1 in cells, 0.15 mL of the recombinant baculovirus virus stock was added to cells, and the then cultured for 60 hrs. The cells were separated from the culture solution by centrifugation at 3000 rpm for 10 min and washed once with PBS. The cells were suspended in 10 mL of lysis buffer (25 mM HEPES (pH 7.5), 1% Triton X, 130 mM NaCl, 1 mM EDTA, 1 mM DTT, 25 mM β-glycerophosphate, Protease inhibitor complete (Roche), 1 mM sodium orthovanadate) and ruptured by four times of treatment with a homogenizer (POLYTRON) at 20000 rpm for 30 seconds. Active ASK1 protein was purified from a supernatant obtained by centrifugal separation at 40000 rpm for 45 min using anti-FLAG M2 Affinity Gel (Sigma).
The test compounds (2.5 μl) dissolved in DMSO were added to wells containing 37.5 μl of the reaction solution (25 mM HEPES (pH 7.5), 10 mM magnesium acetate, 1 mM DTT) including 30 ng of active ASK1 protein and 1 μg of myelin basic protein (Wako), and incubated at room temperature for 5 min. To start the reaction, 10 μL of ATP solution (2.5 μM ATP, 0.1 μCi [γ-^32P]ATP) was added to wells. After incubating at room temperature for 30 min, the reaction was terminated by adding 50 μl of 20% TCA solution. The reaction solution was incubated at 4° C. for 30 min and an acid-insoluble fraction was transferred onto a GF/C filter (Packard) with Cell Harvester (Packard), and washed with 250 mM phosphoric acid. After drying at 45° C. for 60 min., 40 μL of Microscint 0 (Packard) was added and the radioactivity was measured with TopCount (Packard). The concentrations (IC50 value) of the test compounds necessary for 50% inhibition of kinase activity were calculated by PRISM 3.0 (Graphpad Software).
The enzyme activities of selected compounds of the present invention against ASK1 were determined using the assay disclosed in Example A and B. The resulted pIC50 values are reported in Table 1.

Take `CC(C)(O)c1ccc(C(=O)Nc2cc(-c3cccc(CO)c3)n3nccc3n2)cc1` [Compound 6, N-(7-(3-(hydroxymethyl)phenyl)pyrazolo[1,5-a]pyrimidin-5-yl)-4-(2-hydroxypropan-2-yl)benzamide]: the IC50 was less than 100 nM.

Take `COc1ccc(-c2cc(NC(=O)c3ccc(C(C)(C)O)cc3)nc3ccnn23)cc1` [Compound 19, 4-(2-Hydroxypropan-2-yl)-N-(7-(4-methoxyphenyl)pyrazolo[1,5-a]pyrimidin-5-yl)benzamide]: the IC50 is less than 100 nM.

Regarding `CC(C)(O)c1ccc(C(=O)Nc2cc(N3CCc4ccccc4C3)n3nccc3n2)cc1` [Compound 64, N-(7-(3,4-dihydroisoquinolin-2(1H)-yl)pyrazolo[1,5-a]pyrimidin-5-yl)-4-(2-hydroxypropan-2-yl)benzamide], the IC50 is less than 100 nM.

Turning to `CC(C)(C)c1ccc(C(=O)Nc2cc(-c3cccc(CCO)c3)n3nccc3n2)cc1` [Compound 10, 4-tert-butyl-N-(7-(3-(2-hydroxyethyl)phenyl)pyrazolo[1,5-a]pyrimidin-5-yl)benzamide], the IC50 was less than 100 nM.

As to `CC(C)(O)c1ccc(C(=O)Nc2cc(N3CCC(O)CC3)n3nccc3n2)cc1` [Compound 73, N-(7-(4-hydroxypiperidin-1-yl)pyrazolo[1,5-a]pyrimidin-5-yl)-4-(2-hydroxypropan-2-yl)benzamide], the IC50 is 100 to 1000 nM.

`CC(C)(O)c1ccc(C(=O)Nc2cc(NC3CC3)n3nccc3n2)cc1` [Compound 88, N-(7-(cyclopropylamino)pyrazolo[1,5-a]pyrimidin-5-yl)-4-(2-hydroxypropan-2-yl)benzamide]: the half-maximal inhibitory concentration (IC50) was 100 to 1000 nM.

Turning to `CC(C)(C)c1ccc(C(=O)Nc2cc(N3CCOCC3)n3nccc3n2)cc1` [Compound 65, 4-tert-butyl-N-(7-morpholinopyrazolo[1,5-a]pyrimidin-5-yl)benzamide, trifluoroacetate salt], the IC50 is less than 100 nM.

Take `Cc1cc2nc(NC(=O)[C@@H]3C[C@H]3c3ccc(F)cc3)cc(N3CCC(NC(N)=O)CC3)n2n1` (racemic) [Compound 362, 2-(4-fluorophenyl)-N-(2-methyl-7-(4-ureidopiperidin-1-yl)pyrazolo[1,5-a]pyrimidin-5-yl)cyclopropanecarboxamide]: the IC50 was less than 100 nM.

As for `CC(C)(C)c1ccc(C(=O)Nc2cc(-c3cccc(CCCO)c3)n3nccc3n2)cc1` [Compound 11, 4-tert-Butyl-N-(7-(3-(3-hydroxypropyl)phenyl)pyrazolo[1,5-a]pyrimidin-5-yl)benzamide], the IC50 was less than 100 nM.

As to `Cc1ccc(-c2cc(N)nc3ccnn23)cc1` [Compound 174, 7-p-tolylpyrazolo[1,5-a]pyrimidin-5-amine], the IC50 is more than 1000 nM.

With `CN(C)c1cc(NC(=O)c2ccc(C(C)(C)C)cc2)nc2ccnn12` [Compound 125, 4-tert-butyl-N-(7-(dimethylamino)pyrazolo[1,5-a]pyrimidin-5-yl)benzamide], the IC50 was less than 100 nM.

On to `Cc1cc2nc(NC(=O)c3ccc(C(C)(C)O)cc3)cc(N3CC[C@@H](O)C3)n2n1` [Compound 203, (R)-4-(2-hydroxypropan-2-yl)-N-(7-(3-hydroxypyrrolidin-1-yl)-2-methylpyrazolo[1,5-a]pyrimidin-5-yl)benzamide], for which the IC50 was less than 100 nM.

As for `CC(C)(O)c1ccc(C(=O)Nc2cc(N3CCC[C@@H](C(N)=O)C3)n3nccc3n2)cc1` [Compound 83, (R)-1-(5-(4-(2-hydroxypropan-2-yl)benzamido)pyrazolo[1,5-a]pyrimidin-7-yl)piperidine-3-carboxamide], the IC50 is less than 100 nM.

Take `CC(C)(C)c1ccc(C(=O)Nc2cc(-c3cccc(CC#N)c3)n3nccc3n2)cc1` [Compound 34, 4-tert-butyl-N-{7-[3-(cyanomethyl)phenyl]pyrazolo[1,5-a]pyrimidin-5-yl}benzamide]: the IC50 was less than 100 nM.

As for `CC(C)(O)c1ccc(C(=O)Nc2cc(-c3ccc(C(N)=O)cc3)n3nccc3n2)cc1` [Compound 22, N-(7-(4-carbamoylphenyl)pyrazolo[1,5-a]pyrimidin-5-yl)-4-(2-hydroxypropan-2-yl)benzamide], the IC50 was in the range of 100 to 1000 nM.

As to `CC(C)(C)c1ccc(C(=O)Nc2cc(-c3cccs3)n3nccc3n2)cc1` [Compound 2, 4-tert-butyl-N-(7-(thiophen-2-yl)pyrazolo[1,5-a]pyrimidin-5-yl)benzamide], the IC50 is less than 100 nM.

Consider `CC(=O)NC1CCN(c2cc(NC(=O)[C@@H]3C[C@H]3c3ccc(F)cc3)nc3cc(C)nn23)CC1` (racemic) [Compound 361, N-(7-(4-acetamidopiperidin-1-yl)-2-methylpyrazolo[1,5-a]pyrimidin-5-yl)-2-(4-fluorophenyl)cyclopropanecarboxamide], for which the IC50 was less than 100 nM.

Turning to `COc1ccc(-c2cc(NC(=O)c3ccc(C(C)(C)C)cc3)nc3ccnn23)cn1` [Compound 13, 4-tert-Butyl-N-(7-(6-methoxypyridin-3-yl)pyrazolo[1,5-a]pyrimidin-5-yl)benzamide], the IC50 was more than 1000 nM.

With `Cc1cc2nc(NC(=O)[C@@H]3C[C@H]3c3ccccc3)cc(-c3ccccc3)n2n1` [Compound 347, (1R,2R)—N-(2-Methyl-7-phenylpyrazolo[1,5-a]pyrimidin-5-yl)-2-phenylcyclopropanecarboxamide], the IC50 was less than 100 nM.

For the molecule `Nc1cc(-c2cccc(CO)c2)n2nccc2n1` [Compound 178, (3-(5-aminopyrazolo[1,5-a]pyrimidin-7-yl)phenyl)methanol], the IC50 is more than 1000 nM.

Regarding `Cc1cc2nc(NC(=O)c3ccc(C(C)(C)O)cc3)cc(-c3ccccc3)n2n1` [Compound 202, 4-(2-hydroxypropan-2-yl)-N-(2-methyl-7-phenylpyrazolo[1,5-a]pyrimidin-5-yl)benzamide], the IC50 was less than 100 nM.

Take `CC(C)(C)c1ccc(C(=O)Nc2cc(N3CCCC(O)C3)n3nccc3n2)cc1` (stereo not shown) [Compound 113, 4-tert-butyl-N-(7-(3-hydroxypiperidin-1-yl)pyrazolo[1,5-a]pyrimidin-5-yl)benzamide]: the IC50 was less than 100 nM.

As to `COc1ccc(-c2cc(NC(=O)c3ccc(C(C)(C)O)nc3)nc3cc(C)nn23)cc1` [Compound 338, 6-(2-hydroxypropan-2-yl)-N-(7-(4-methoxyphenyl)-2-methylpyrazolo[1,5-a]pyrimidin-5-yl)nicotinamide, trifluoroacetate salt], the IC50 is less than 100 nM.

As for `CC(C)(O)c1ccc(C(=O)Nc2cc(-c3cccc(CC#N)c3)n3nccc3n2)cc1` [Compound 21, N-(7-(3-(cyanomethyl)phenyl)pyrazolo[1,5-a]pyrimidin-5-yl)-4-(2-hydroxypropan-2-yl)benzamide], the IC50 is 100 to 1000 nM.

With `CC(C)(O)c1ccc(C(=O)Nc2cc(N3CCC[C@@H](C(=O)O)C3)n3nccc3n2)cc1` [Compound 84, (R)-1-(5-(4-(2-hydroxypropan-2-yl)benzamido)pyrazolo[1,5-a]pyrimidin-7-yl)piperidine-3-carboxylic acid], the IC50 is 100 to 1000 nM.

Values taken from patent US8921358B2, “Apoptosis signal-regulating kinase 1 inhibitors” (Takeda Pharmaceutical Company Limited, priority 2008, dated 2014).
